Measured values reported in ChEMBL document CHEMBL3217538, “Antimycobacterial activity of spirooxindolo-pyrrolidine, pyrrolizine and pyrrolothiazole hybrids obtained by a three-component regio- and stereoselective 1,3-dipolar cycloaddition” (2011).
Converted amounts (≈) assume the structure as drawn.

What was measured:
[1] = system: Mycobacterium tuberculosis; test: Ratio of pyrazinamide MIC99 to compound MIC99 for Mycobacterium tuberculosis H37Rv; type: functional
[2] = system: Mycobacterium tuberculosis; test: Antimycobacterial activity against Mycobacterium tuberculosis H37Rv by agar dilution method; type: functional

SMILES | Ratio [1] | MIC99 [2] [µM]
O=C1Nc2ccccc2[C@@]12C(c1cccc(Cl)c1)C([N+](=O)[O-])C1CCCN12 (stereo partly drawn) | 1.6 | 32.6 (≈ 12.5 µg/mL)
O=C1Nc2ccccc2[C@@]12C(c1ccc(Cl)cc1)C([N+](=O)[O-])C1CCCN12 (stereo partly drawn) | 1.6 | 32.6 (≈ 12.5 µg/mL)
O=C1Nc2ccccc2[C@@]12C(c1ccc(F)cc1)C([N+](=O)[O-])C1CSCN12 (stereo partly drawn) | 6.2 | 8.2 (≈ 3.16 µg/mL)
COc1ccc(OC)c(C2C([N+](=O)[O-])C3CCCN3[C@@]23C(=O)Nc2ccccc23)c1 (stereo partly drawn) |  | > 61.1
COc1ccc(C2C([N+](=O)[O-])C3CCCN3[C@@]23C(=O)Nc2ccccc23)cc1 (stereo partly drawn) |  | 65.9 (≈ 25 µg/mL)
O=C1Nc2ccccc2[C@]12NC(c1ccccc1)C([N+](=O)[O-])C2c1ccc(F)cc1 (stereo partly drawn) | 1.6 | 31 (≈ 12.5 µg/mL)
Cc1ccc(C2C([N+](=O)[O-])C3CCCN3[C@@]23C(=O)Nc2ccccc23)cc1 (stereo partly drawn) |  | 68.8 (≈ 25 µg/mL)
O=C1Nc2ccccc2[C@]12NC(c1ccccc1)C([N+](=O)[O-])C2c1ccc(Br)cc1 (stereo partly drawn) | 1.9 | 26.9 (≈ 12.5 µg/mL)
CC[C@@H](CO)NCCN[C@@H](CC)CO [ETHAMBUTOL] |  | 7.6 (≈ 1.55 µg/mL)
NNC(=O)c1ccncc1 [ISONIAZID] |  | 0.4 (≈ 0.0549 µg/mL)
O=C1Nc2ccccc2[C@@]12C(c1ccccc1)C([N+](=O)[O-])C1CCCN12 (stereo partly drawn) |  | 71.6 (≈ 25 µg/mL)
O=C1Nc2ccccc2[C@@]12C(c1ccc(Cl)cc1)C([N+](=O)[O-])C1CSCN12 (stereo partly drawn) | 3.3 | 15.5 (≈ 6.23 µg/mL)
O=C1Nc2ccccc2[C@@]12C(c1cccc([N+](=O)[O-])c1)C([N+](=O)[O-])C1CSCN12 (stereo partly drawn) | 6.7 | 7.6 (≈ 3.13 µg/mL)
COc1cc(C2C([N+](=O)[O-])C3CCCN3[C@@]23C(=O)Nc2ccccc23)cc(OC)c1OC (stereo partly drawn) |  | > 56.9
O=C1Nc2ccccc2[C@@]12C(c1ccc(F)cc1)C([N+](=O)[O-])C1CCCN12 (stereo partly drawn) |  | 68.1 (≈ 25 µg/mL)
O=C1Nc2ccccc2[C@]12NC(c1ccccc1)C([N+](=O)[O-])C2c1cccc(Cl)c1 (stereo partly drawn) | 3.4 | 14.9 (≈ 6.26 µg/mL)
COc1ccc(C2C([N+](=O)[O-])C3CSCN3[C@@]23C(=O)Nc2ccccc23)cc1 (stereo partly drawn) |  | 62.9 (≈ 25 µg/mL)
NC(=O)c1cnccn1 [PYRAZINAMIDE] |  | 50.1 (≈ 6.17 µg/mL)
COc1ccc(OC)c(C2C([N+](=O)[O-])C(c3ccccc3)N[C@@]23C(=O)Nc2ccccc23)c1 (stereo partly drawn) |  | > 56.1
O=C1Nc2ccccc2[C@@]12C(c1ccc(Br)cc1)C([N+](=O)[O-])C1CCCN12 (stereo partly drawn) |  | 58.4 (≈ 25 µg/mL)
O=C1Nc2ccccc2[C@]12NC(c1ccccc1)C([N+](=O)[O-])C2c1ccc(Cl)cc1 (stereo partly drawn) | 1.7 | 29.8 (≈ 12.5 µg/mL)
COc1ccc(C2C([N+](=O)[O-])C(c3ccccc3)N[C@@]23C(=O)Nc2ccccc23)cc1 (stereo partly drawn) |  | > 60.2
O=C1Nc2ccccc2[C@]12NC(c1ccccc1)C([N+](=O)[O-])C2c1cccc([N+](=O)[O-])c1 (stereo partly drawn) | 1.75 | 29 (≈ 12.5 µg/mL)
O=C1Nc2ccccc2[C@]12NC(c1ccccc1)C([N+](=O)[O-])C2c1ccccc1 (stereo partly drawn) |  | > 64.9
Cc1ccc(C2C([N+](=O)[O-])C(c3ccccc3)N[C@@]23C(=O)Nc2ccccc23)cc1 (stereo partly drawn) |  | > 62.6
O=C1Nc2ccccc2[C@@]12C(c1cccc(Cl)c1)C([N+](=O)[O-])C1CSCN12 (stereo partly drawn) | 6.5 | 7.8 (≈ 3.13 µg/mL)
O=C1Nc2ccccc2[C@@]12C(c1cccc([N+](=O)[O-])c1)C([N+](=O)[O-])C1CCCN12 (stereo partly drawn) |  | 63.4 (≈ 25 µg/mL)
